# Read-outs that look alike come from different tables or passages of the source. Non-standard residues stand in square brackets, D forms with d. Residues, ends and D or L forms follow the SMILES beside them. NMeN = CN[C@@H](CC(N)=O)C(=O)O; NMeL = CN[C@@H](CC(C)C)C(=O)O; dNMeL = CN[C@H](CC(C)C)C(=O)O; NMeV = CN[C@H](C(=O)O)C(C)C; dOrn = NCCC[C@@H](N)C(=O)O
# Columns and labels:
# [1] = Chrom logD assay; assay type: physicochemical; conditions: reversed phase HPLC column (Gemini NX C18), pH 7.4; read-out: Log D
# Protocol: The Chromatographic Hydrophobicity Index (CHI) values were measured using a reversed phase HPLC column (50 x 2 mmx 3 μMGemini NX C18, Phenomenex, UK) with fast acetonitrile gradient at starting mobile phase of 100% pH = 7.4 buffer. CHI values are derived directly from the gradient retention times by using a calibration line obtained for standard compounds. The CHI value approximates to the volume % organic concentration when the compound elutes. CHI is linearly transformed into ChromlogD by the formula: ChromlogD=0.0857CHI−2.00
# The average error of the assay is ±3 CHI unit or ±0.25 ChromlogD.
# [2] = Intrinsic clearance (CLint) assay, mouse liver microsomes; assay type: in vitro ADME; conditions: for % LBF Mouse: liver blood flow; for CLint Mouse: mouse liver microsomes; for half-life at 0.5 µM: mouse, pooled mouse liver microsomes, pH 7.4, read-out: Microsomal t1/2 Mouse; for CLpred Mouse: predicted metabolic clearance
# Protocol: (§1) Pooled mouse and human liver microsomes are purchased from Xenotech. Microsomes (final protein concentration 0.5 mg/mL, MgCl2 (final concentration = 5 mM) and test compound (final substrate concentration = 0.5] M; final DMSO concentration = 0.5%) in 0.1 M phosphate buffer pH 7.4 are pre-incubated at 37°C prior to the addition of NADPH (final concentration = 1 mM) to initiate the reaction. The final incubation volume is 600 μL.
# (§2) Control incubation is included for each compound tested where 0.1 M phosphate buffer pH 7.4 is added instead of NADPH (minus NADPH). One control compound is included with each species. All incubations are performed singularly for each test compound. Each compound is incubated for 45 minutes and samples (100 μL) of incubate are taken at 0, 5, 15, 30 and 45 min. The control (minus NADPH) is sampled at 30 min only. The reactions are stopped by the addition of sample to 200 μL Acetonitrile: Methanol 3:1 containing internal standard. The terminated samples are centrifuged at 2,500 rpm for 20 min at 4°C to precipitate the protein. Quantitative analysis: following protein precipitation, the samples were analyzed using specific LC-MS/MS conditions. Data analysis: from a plot of ln peak area ratio (compound peak area/internal standard peak area) against time, the gradient of the line was determined. Subsequently, half-life and intrinsic clearance were calculated using the equations below: Eliminationrateconstant(K)=(−gradient) Halflife(t1/2)(min)=0.693/K Cli(mL/min/gprotien)=V×0.693/t1/2 WhereV=Incubationvolume(mL/gmicrosomalprotien)
# [3] = target: human serum albumin (Homo sapiens, UniProt P02768); assay: Human serum albumin (HSA) binding assay; assay type: in vitro ADME; conditions: human serum albumin binding
# Protocol: HSA binding assay was performed according to the method described by Valko K, et al. The basic principle of the measurements is the determination of gradient retention times of compounds on immobilized HSA column and converting these retention times to the appropriate property values using calibration. The peaks are detected and identified by UV. Calibration sets of compounds are measured before each run for which the HSA binding values are known. The retention times of the calibration set of compounds are plotted against these known values. The slope and the intercept of the obtained straight lines are used to calculate the HSA binding for the unknown compounds.
# [4] = Chemi-Luminescent Nitrogen Detection (CLND) kinetic solubility assay; assay type: physicochemical; conditions: phosphate buffered saline, pH 7.4; kinetic aqueous solubility by CLND; read-out: Solubility
# Protocol: GSK in-house kinetic solubility assay: 5 μL of 10mM DMSO stock solution diluted to 100 uL with pH7.4 phosphate buffered saline, equilibrated for 1 hour at room temperature, filtered through Millipore Multiscreen HTS-PCF filter plates (MSSL BPC).
# The filtrate is quantified by suitably calibrated flow injection CLND. The standard error of the CLND solubility determination is ±30 μM, the upper limit of the solubility is 500 μM when working from 10 mM DMSO stock solution.
# [5] = Artificial membrane permeability assay; assay type: in vitro ADME; conditions: PAMPA, pH 7.4; passive artificial membrane permeability; read-out: Permeability
# Protocol: A 8% L-a-phosphatidylcholine (EPC) in 1% cholesterol decane solution and a 1.8% EPC in cholesterol decane solution were prepared. The lipid solution was then aliquoted into 4 mL capped vials, sealed with parafilm and stored in-20°Cfreezer. The lipid solution was then transferred from 4 mL vial into 96-well half area plate (130μL/well) for daily assay usage. An additional 50 mM phosphate buffer with 0.5% encapsin, pH at 7.4 was prepared. The assay was run by the Biomek FX and Biomek software. The assay procedure is written under the Biomek software. For one batch assay, it can test two 96-well sample plates with at least one standard on each sample plate. The total assay time was about 4 hours. 3.5 μL of lipid solution were added to the filler plate, shaken for 12 seconds, and 250 μL of buffer were added to donor side and 100 μL to the receiver side. The assay plate was shaken for 45 min before adding the compounds. The test compounds (2.5 μL) were added to the donor side. The assay was run as replicates: Assay plates1 and 2 tested the sample plate 1; assay plates 3 and 4 tested the sample plate 2. The assay plates were then incubated and shaken for 3 hours at room temperature.
# The assay samples were transferred to the HPLC analysis plates and 100 μL of receiver solution were aspirated and transferred to the receiver for analysis. Similarly, another 100 μL from the donor solution were transferred to the donor analysis plate.
# Compound concentration was measured by HPLC at different time-points and permeability was established as nm/sec.
# [6] = Intrinsic clearance (CLint) assay, human liver microsomes; assay type: in vitro ADME; conditions: for CLint Human: human liver microsomes; for half-life at 0.5 µM: human, pooled human liver microsomes, pH 7.4, human liver microsomes, read-out: Microsomal t1/2 Human; for % LBF Human: liver blood flow; for CLpred Human: predicted metabolic clearance
# Protocol: as §1, §2
# [7] = amide bond, 18-membered ring, HATU/HOBt/DIEA
# Chain of human serum albumin (P02768 25-609): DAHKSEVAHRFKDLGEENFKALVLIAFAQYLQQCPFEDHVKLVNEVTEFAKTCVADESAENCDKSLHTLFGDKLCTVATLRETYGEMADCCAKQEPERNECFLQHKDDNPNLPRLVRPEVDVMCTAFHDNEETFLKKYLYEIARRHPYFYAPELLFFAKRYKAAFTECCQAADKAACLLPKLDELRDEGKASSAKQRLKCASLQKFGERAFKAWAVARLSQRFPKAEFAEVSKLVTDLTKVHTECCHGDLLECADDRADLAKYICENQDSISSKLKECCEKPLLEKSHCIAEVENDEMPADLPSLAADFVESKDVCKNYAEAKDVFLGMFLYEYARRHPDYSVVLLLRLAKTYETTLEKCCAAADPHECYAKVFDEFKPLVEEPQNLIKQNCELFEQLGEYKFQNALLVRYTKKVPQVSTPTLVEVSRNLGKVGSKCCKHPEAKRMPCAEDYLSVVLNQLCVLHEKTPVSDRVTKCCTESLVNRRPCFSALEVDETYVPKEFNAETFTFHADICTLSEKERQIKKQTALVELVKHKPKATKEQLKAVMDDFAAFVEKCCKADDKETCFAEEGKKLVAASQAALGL
SMILES,chromatographic logD [1],% LBF Mouse [2] [%],CLint Mouse [2] [mL/min/g tissue],half-life at 0.5 µM [2] [h],CLpred Mouse [2] [mL/min/kg],% HSA [3] [%],solubility kinetic at 1 h [4] [µg/mL],Papp at 3 h [5] [×10⁻⁶ cm/s],CLint Human [6] [mL/min/g tissue],half-life at 0.5 µM [6] [h],% LBF Human [6] [%],CLpred Human [6] [mL/min/kg],"ring closure, isolated yield ([7]; from H-dLeu-Val-dOrn(Boc)-dOrn(Boc)-Trp(Boc)-Leu-OH) [%]","ring closure, isolated yield ([7]; from H-Asn(Trt)-dOrn(Boc)-Trp(Boc)-Ile-dLeu-Val-OH) [%]","ring closure, isolated yield ([7]; from H-dLeu-Met-Asn(Trt)-dOrn(Boc)-Trp(Boc)-Leu-OH) [%]","ring closure, isolated yield ([7]; from H-dPhe(4-Cl)-Ile-dOrn(Boc)-dOrn(Boc)-Trp(Boc)-Leu-OH) [%]","ring closure, isolated yield ([7]; from H-dLeu-Val-Asn(Trt)-dOrn(Boc)-Ala-Leu-OH) [%]"
CC(C)C[C@H]1NC(=O)[C@H](CC(C)C)N(C)C(=O)[C@H](Cc2c[nH]c3ccccc23)NC(=O)[C@@H](CCCN)NC(=O)[C@H](CC(N)=O)N(C)C(=O)[C@H](C(C)C)NC1=O [Compound 23c] (cyclo([NMeL][dL]V[NMeN][dOrn]W)),2,30.00,1.06,1.05,37.80,82.21,≥ 174,< 1,3.19,0.287,81.29,14.63,–,–,–,–,–
CC[C@H](C)[C@@H]1NC(=O)[C@@H](CC(C)C)NC(=O)[C@H](CC(C)C)NC(=O)[C@H](Cc2c[nH]c3ccccc23)NC(=O)[C@@H](CCCN)NC(=O)[C@H](CO)NC1=O [Compound 10c] (cyclo(IS[dOrn]WL[dL])),2.16,<16.3,<0.48,> 2.31,<20.50,86.47,≥ 228,< 1,9.77,0.0938,93.00,16.70,–,–,–,–,–
CC(C)C[C@@H]1NC(=O)[C@H](Cc2c[nH]c3ccccc23)NC(=O)[C@@H](CCCN)NC(=O)[C@H](CC(N)=O)N(C)C(=O)[C@H](C(C)C)NC(=O)[C@@H](CC(C)C)N(C)C1=O [Compound 25c] (cyclo(L[dNMeL]V[NMeN][dOrn]W)),2.25,<16.3,<0.48,> 2.31,<20.50,82.97,≥ 221,< 1,<0.40,> 2.31,<35.08,<6.35,–,–,–,–,–
CC(C)C[C@@H]1NC(=O)[C@H](Cc2c[nH]c3ccccc23)NC(=O)[C@@H](CCCN)NC(=O)[C@H](CC(N)=O)NC(=O)[C@H](C(C)C)N(C)C(=O)[C@@H](CC(C)C)NC1=O [Compound 22c] (cyclo(L[dL][NMeV]N[dOrn]W)),1.96,<16.3,<0.48,> 2.31,<20.50,73.98,≥ 153,< 1,<0.40,> 2.31,<35.08,<6.35,–,–,–,–,–
CC(C)C[C@H]1NC(=O)[C@H](CC(C)C)N(C)C(=O)[C@H](Cc2c[nH]c3ccccc23)NC(=O)[C@@H](CCCN)NC(=O)[C@H](CC(N)=O)NC(=O)[C@H](C(C)C)N(C)C1=O [Compound 24c] (cyclo(N[dOrn]W[NMeL][dL][NMeV])),2.18,42.0,1.79,0.261,52.90,87.02,≥ 217,< 1,3.51,0.621,82.70,14.90,–,–,–,–,–
COc1ccc(C[C@@H]2NC(=O)[C@@H](CCCN)NC(=O)[C@H](CC(N)=O)NC(=O)[C@H](C(C)C)NC(=O)[C@@H](CC(C)C)NC(=O)[C@H](CC(C)C)NC2=O)cc1 [Compound 15c] (cyclo(L[dL]VN[dOrn]Y(Me))),1.73,24.00,0.78,1.43,30.20,46.55,≥ 189,< 1,<0.40,> 2.31,<35.08,<6.35,–,–,–,–,–
CC(C)C[C@@H]1NC(=O)[C@H](Cc2cn(C(=O)OC(C)(C)C)c3ccccc23)NC(=O)[C@@H](CCCNC(=O)OC(C)(C)C)NC(=O)[C@@H](CCCNC(=O)OC(C)(C)C)NC(=O)[C@H](C(C)C)NC(=O)[C@@H](CC(C)C)NC1=O [cyclo(D-Leu-Val-D-Orn(Boc)-D-Orn(Boc)-Trp(Boc)-Leu)],–,–,–,–,–,–,–,–,–,–,–,–,40,–,–,–,–
CC[C@H](C)[C@@H]1NC(=O)[C@H](Cc2cn(C(=O)OC(C)(C)C)c3ccccc23)NC(=O)[C@@H](CCCNC(=O)OC(C)(C)C)NC(=O)[C@H](CC(=O)NC(c2ccccc2)(c2ccccc2)c2ccccc2)NC(=O)[C@H](C(C)C)NC(=O)[C@@H](CC(C)C)NC1=O [cyclo(Asn(Trt)-D-Orn(Boc)-Trp(Boc)-Ile-D-Leu-Val)],–,–,–,–,–,–,–,–,–,–,–,–,–,47,–,–,–
CSCC[C@@H]1NC(=O)[C@@H](CC(C)C)NC(=O)[C@H](CC(C)C)NC(=O)[C@H](Cc2cn(C(=O)OC(C)(C)C)c3ccccc23)NC(=O)[C@@H](CCCNC(=O)OC(C)(C)C)NC(=O)[C@H](CC(=O)NC(c2ccccc2)(c2ccccc2)c2ccccc2)NC1=O [cyclo (D-Leu-Met-Asn(Trt)-D-Orn(Boc)-Trp(Boc)-Leu)],–,–,–,–,–,–,–,–,–,–,–,–,–,–,40,–,–
CC[C@H](C)[C@@H]1NC(=O)[C@@H](Cc2ccc(Cl)cc2)NC(=O)[C@H](CC(C)C)NC(=O)[C@H](Cc2cn(C(=O)OC(C)(C)C)c3ccccc23)NC(=O)[C@@H](CCCNC(=O)OC(C)(C)C)NC(=O)[C@@H](CCCNC(=O)OC(C)(C)C)NC1=O [cyclo(D-Phe (4-Cl)-Ile-D-Orn(Boc)-D-Orn(Boc)-Trp(Boc)-Leu)],–,–,–,–,–,–,–,–,–,–,–,–,–,–,–,55,–
CC(C)C[C@@H]1NC(=O)[C@H](C)NC(=O)[C@@H](CCCNC(=O)OC(C)(C)C)NC(=O)[C@H](CC(=O)NC(c2ccccc2)(c2ccccc2)c2ccccc2)NC(=O)[C@H](C(C)C)NC(=O)[C@@H](CC(C)C)NC1=O [cyclo(Ala-D-Orn (Boc)-Asn(Trt)-Val-D-Leu-Leu)],–,–,–,–,–,–,–,–,–,–,–,–,–,–,–,–,43
